# Experiments:
# Format in all cases: cell-based
# [1] = tested on: A549 lung cancer cells; experiment: MTT cell growth and proliferation experiment, A549; design: key to Inhibition Rate: (control OD570 − test OD570)/control OD570, as fraction; settings: 3 d; for OD Value (x ± s): A549, MTT OD 570 nm; for Inhibition Rate: A549, MTT, given as fraction
# Description: (§1) 1.1 Reagents 12 retinoic acid derivatives with the final concentrations of 1 ug/ml, 5 ug/ml and 10 ug/ml are synthesized by the Pharmaceutical College of Anhui Medical University using DMSO and anhydrous ethanol, separately packaged for storage at −20° C. and kept out of the light when used, and the final concentration of DMSO is less than 0.1%. MTT is purchased from Sigma Corp. The Coulter DNA detection kit is presented by the Central Lab of Anhui Provincial Hospital. AFP and γ-GT are provided by the Clinical Lab of No. 105 Hospital of PLA. Apoptosis-Hoechst staining kit is purchased from Beyotime Company.
# (§2) 1.2 Cell Culture A549, and HpeG2 cells are stored by our lab. Cell growth condition: DMEM (from GIBICO Company) culture solution is added with 10% of calf serum (purchased from the Hangzhou Sijiqing Biological Engineering Material Co., Ltd.) to culture in a cell culture incubator (37° C., 5% CO2) with saturated humidity.
# (§3) 1.3 Cell Growth and Proliferation Experiments MTT process is used. Cells in the logarithmic phase are picked and seeded on a 96-hole culture board with a cell concentration of 5×10^7/L. Each hole of the board is 200 ul. The next day after the adherence, the original solution is discarded, and the culture solution is added. The cells are divided into 1 ug/ml retinoic acid derivative groups, 5 ug/ml retinoic acid derivative groups, 10 ug/ml retinoic acid derivative groups, blank control groups, cell control groups, solvent control groups (1‰ DMSO and anhydrous ethanol) (17 in total) according to the concentrations thereof, incubated for 3d, added with MTT (5 g/L) of 20 ul/hole for incubation at 37° C. for 4 h. The original solution is carefully discarded and dried, and DMSO of 20 ul/hole is added to dissolve crystals, followed by vibrating for 10 min and determining the OD value at 570 nm. Each concentration is corresponding to 5 holes, and each group calculates the average of 3 experiments to calculate the inhibition rate to the cell growth according to the optical density (OD) average of each hole in each group and the following equation: inhibition rate %=(control hole OD570−experimental hole OD570)/control hole OD5700*100%. The process above is repeated for three times. The second experiment takes the maximum concentration (10 […]) for culture respectively for 1, 2, 3 and 7 days and repeat for three times.
# [2] = tested on: liver cancer HepG2 cells; experiment: MTT cell growth and proliferation experiment, HepG2; design: key to Inhibition Rate: (control OD570 − test OD570)/control OD570, as fraction; settings: 3 d; for OD Value (x ± s): HepG2, MTT OD 570 nm; for Inhibition Rate: HepG2, MTT, fraction
# Description: as §1, §2, §3
# [3] = tested on: NB4 cells; experiment: Cell cycle analysis by flow cytometer, NB4; design: S %: dose or concentration left out as unconfirmed; settings: 72 h
# Description: (§4) Retinoic acid derivatives and fenretinide are prepared as a storage solution of 10 mg/mL by anhydrous ethanol and stored at […] and kept out of light.
# (§5) NB4 cells and K562 cells are inoculated with an initial concentration of 2*10^5/ml in the RPMI1640 culture solution having 10% of calf serum (FBS), 100 u/ml of penicillin, 100 Lg/ml of streptomycin and 2 mmol/L of glutamine for suspension culture (37° C., 5% CO2). Change the solution every 2-3 days.
# (§6) For the cells above acted by the retinoic acid derivatives and fenretinide ([…]) for 72 h, about 10^6 of them are collected, washed by PBS twice, fixed by 70% of cold ethanol over 24 h, washed by PBS twice, added with 5 ug/ml of propidium iodide for staining and detected by a flow cytometer from which the data are analyzed and processed by the multi-cycle software.
# [4] = tested on: K562 cells; experiment: Cell cycle analysis by flow cytometer, K562; design: S %: dose or concentration left out as unconfirmed; settings: 72 h
# Description: as §4, §5, §6
Compound,"OD Value (x ± s) ([1]; 1 ug/ml, solvent ethanol)","OD Value (x ± s) ([1]; 5 ug/ml, solvent ethanol)","OD Value (x ± s) ([1]; 10 ug/ml, solvent ethanol)","Inhibition Rate ([1]; 1 ug/ml, solvent ethanol)","Inhibition Rate ([1]; 5 ug/ml, solvent ethanol)","Inhibition Rate ([1]; 10 ug/ml, solvent ethanol)","OD Value (x ± s) ([2]; 1 ug/ml, solvent ethanol)","OD Value (x ± s) ([2]; 5 ug/ml, solvent ethanol)","OD Value (x ± s) ([2]; 10 ug/ml, solvent ethanol)","Inhibition Rate ([2]; 1 ug/ml, solvent ethanol)","Inhibition Rate ([2]; 5 ug/ml, solvent ethanol)","Inhibition Rate ([2]; 10 ug/ml, solvent ethanol)",G1 % [3],G2 % [3],S % [3],G1 % [4],G2 % [4],S % [4],"OD Value (x ± s) ([1]; 1 ug/ml, solvent DMSO (D))","OD Value (x ± s) ([1]; 5 ug/ml, solvent DMSO (D))",other results
"CC1=C(/C=C/C(C)=C/C=C/C(C)=C/C(=O)Oc2ccc(OC(F)(F)F)cc2)C(C)(C)CCC1 [Example 5a-01, (4-trifluoromethoxyphenyl)-(all-trans)-3,7-dimethyl-9-(2,6,6-trimethyl-1-cyclohexen-1-yl)-2,4,6,8-nonatetraenoate]",1.962 ± 0.225,1.754 ± 0.138,1.732 ± 0.317,−0.051,0.060,0.072,1.57 ± 0.39,1.51 ± 0.30,1.49 ± 0.23,0.07,0.11,0.12,59.28%,4.98%,35.74%,32.6%,12.5%,55.0%,–,–,–
"CC1=C(/C=C/C(C)=C/C=C/C(C)=C/C(=O)Oc2ccc(N)c(C(F)(F)F)c2)C(C)(C)CCC1 [Example 4a-01, (4-amino-3-trifluoromethylphenyl)-(all-trans)-3,7-dimethyl-9-(2,6,6-trimethyl-1-cyclohexen-1-yl)-2,4,6,8-nonatetraenoate]",–,–,–,–,–,–,–,–,–,–,–,–,59.15%,7.07%,33.78%,39.1%,6.9%,53.9%,–,–,"OD Value (x ± s) ([2]; 1 ug/ml, solvent not given): 1.72 ± 0.44; OD Value (x ± s) ([2]; 5 ug/ml, solvent not given): 1.63 ± 0.36; OD Value (x ± s) ([2]; 10 ug/ml, solvent not given): 1.57 ± 0.30; Inhibition Rate ([2]; 1 ug/ml, solvent not given): −0.009; Inhibition Rate ([2]; 5 ug/ml, solvent not given): 0.04; Inhibition Rate ([2]; 10 ug/ml, solvent not given): 0.07"
"CC1=C(/C=C/C(C)=C/C=C/C(C)=C/C(=O)Oc2ccc(C(F)(F)F)cc2)C(C)(C)CCC1 [Example 2a-01, (4-trifluoromethylphenyl)-(all-trans)-3,7-dimethyl-9-(2,6,6-trimethyl-1-cyclohexen-1-yl)-2,4,6,8-nonatetraenoate]",1.878 ± 0.158,1.487 ± 0.175,1.458 ± 0.066,−0.006,0.203,0.219,1.38 ± 0.56,1.31 ± 0.57,1.30 ± 0.55,0.18,0.23,0.24,–,–,–,36.1%,12.5%,51.4%,–,–,–
"CC1=C(/C=C/C(C)=C/C=C/C(C)=C/C(=O)Oc2cccc(C(F)(F)F)c2)C(C)(C)CCC1 [Example 2a-02, (3-trifluoromethylphenyl)-(all-trans)-3,7-dimethyl-9-(2,6,6-trimethyl-1-cyclohexen-1-yl)-2,4,6,8-nonatetraenoate]",–,–,–,–,–,–,1.19 ± 0.52,1.13 ± 0.46,0.94 ± 0.49,0.29,0.33,0.45,–,–,–,35.4%,9.9%,54.6%,1.735 ± 0.048,1.621 ± 0.070,"OD Value (x ± s) ([1]; 10 ug/ml, solvent DMSO (D)): 1.580 ± 0.207; Inhibition Rate ([1]; 1 ug/ml, solvent DMSO (D)): 0.070; Inhibition Rate ([1]; 5 ug/ml, solvent DMSO (D)): 0.131; Inhibition Rate ([1]; 10 ug/ml, solvent DMSO (D)): 0.144"
"CC1=C(/C=C/C(C)=C/C=C/C(C)=C/C(=O)Oc2cccc(OC(F)(F)F)c2)C(C)(C)CCC1 [Example 5a-02, (3-trifluoromethoxyphenyl)-(all-trans)-3,7-dimethyl-9-(2,6,6-trimethyl-1-cyclohexen-1-yl)-2,4,6,8-nonatetraenoate]",–,–,–,–,–,–,1.27 ± 0.44,1.13 ± 0.47,1.11 ± 0.61,0.25,0.33,0.35,60.06%,4.91%,35.03%,38.2%,7.7%,54.2%,1.843 ± 0.179,1.817 ± 0.142,"OD Value (x ± s) ([1]; 10 ug/ml, solvent DMSO (D)): 1.689 ± 0.154; Inhibition Rate ([1]; 1 ug/ml, solvent DMSO (D)): 0.012; Inhibition Rate ([1]; 5 ug/ml, solvent DMSO (D)): 0.027; Inhibition Rate ([1]; 10 ug/ml, solvent DMSO (D)): 0.095"

# Reference: US8110703B2, “Retinoid derivative and pharmaceutical composition and use thereof” (Anhui Medical University, priority 2008, dated 2012)
